Source: the pKa sets of Baltruschat and Czodrowski (2020)

conditions: acidic group

Row | SMILES | pKa
1 | CC(C)(O)C(C(=O)O)c1ccc(C2CCCCC2)cc1 (stereo not drawn) | 3.76
2 | COc1cccnc1C(O)O | 12.9
3 | COC(=O)[n+]1ccc(C)cc1 | 6.15
4 | Cc1ccccc(=O)c1O | 7.92
5 | CCc1c(O)ccc(C(C)C)c1C | 10.8
6 | C[C@H]1CC[C@H](C(=O)O)CC1 | 4.89
7 | CCCCP(=O)(O)CCCC | 3.22
8 | C[N+](C)(C)Cc1ccc(O)cc1 | 8.75
9 | Oc1cccc2nccnc12 | 8.8
10 | CC(=O)NS(=O)(=O)c1ccccc1C(=O)O | 3.1
11 | Nc1ccc(S(=O)(=O)Nc2ccncn2)cc1 | 6.17
12 | Sc1cccc(Cl)c1 | 5.76
13 | CN(C)c1cccc(O)c1 | 9.85
14 | Cn1nnc(CC(=O)O)n1 | 3.44
15 | CCC#CC(=O)O | 2.6
16 | OB(O)CCc1ccccc1 | 10
17 | c1ccc(-c2nc3ncncc3[nH]2)cc1 | 8.09
18 | O=C(O)C[Se]c1ccc([N+](=O)[O-])cc1 | 3.46
19 | O=[N+]([O-])c1cc2cc(O)ccc2cc1Cl | 8.56
20 | Cc1ccc(N[N+](=O)[O-])cc1 | 4.88

Row | SMILES | pKa
21 | Cc1cc(O)ccc1[S+](C)C | 7.6
22 | O=C([O-])c1ccc(O)cc1 | 9.35
23 | COc1ccc(O)cc1Br | 9.09
24 | [O-]c1[nH+]c(O)nc2nc[nH]c12 | 7.56
25 | CC(S)C(=O)O (stereo not drawn) | 3.35
26 | [NH3+]CCc1ccccc1O | 9.19
27 | O=C1CC(=O)CS(=O)C1 | 3.12
28 | CCc1cc(C(=O)O)cs1 | 4.19
29 | O=C(O)c1ccc[n+]([O-])c1 | 2.95
30 | CCC(CC(C)C)OO (stereo not drawn) | 12.8
31 | CCCC[NH2+]CC(=O)O | 2.32
32 | O=C(O)[C@@H]1CCCC[C@@H]1O | 4.8
33 | NCc1ccccc1S(N)(=O)=O | 10.1
34 | [NH3+]CCS | 8.4
35 | Cc1cc(C)c(O)c(C(C)C)c1 | 11.2
36 | O=P([O-])([O-])C([NH2+]Cc1cccnc1)c1ccccc1O (stereo not drawn) | 10.2
37 | CC(C)=CC[C@@H]1C(=O)C(C(=O)CC(C)C)=C(O)[C@H]1O | 2.35
38 | Oc1c2ccccc2[nH+]c2ccccc12 | 0.32
39 | CC[NH2+]C(C)C(=O)O (stereo not drawn) | 2.22
40 | Oc1ccccc1CN1CCCC1 | 10.8

Row | SMILES | pKa
41 | COc1cc(C(N)=O)ccc1-c1nc2nn(C)cc2[nH]1 | 12.3
42 | Cc1cc(C(=O)O)cs1 | 4.24
43 | O=C(O)Cc1cccs1 | 3.85
44 | Oc1cccc(Cl)c1 | 8.96
45 | ONc1ccnc2ccccc12 | 6.76
46 | O=C(O)CCc1nnnn1-c1ccccc1 | 5
47 | O=C(O)c1ccc(Cl)c([N+](=O)[O-])c1 | 3.33
48 | O=C(O)Cc1ccsc1 | 4.07
49 | CCCNC(O)=S | 0.52
50 | [NH3+]C(CC(=O)O)C(=O)NC(CC(=O)O)C(=O)O (stereo not drawn) | 2.7
51 | O=C(O)C12CCC(C1)C2 | 3.96
52 | NC(=O)Nc1ncnc2nc[nH]c12 | 9.95
53 | CC(C)[C@H]1C[NH2+][C@H](C(=O)[O-])[C@H]1CC(=O)O | 4.23
54 | O=C1NC(=O)[C@H](CSSC[C@@H]2NC(=O)NC2=O)N1 | 8.1
55 | C[N+](=O)[O-] | 10.5
56 | CC(=O)Oc1cccc2cccc(O)c12 | 9.69
57 | CC(C)(/C=C/C(=O)[O-])c1cc([N+](=O)[O-])ccc1O | 7.24
58 | S=C1NC(=S)C(c2ccccc2)N1 (stereo not drawn) | 8.15
59 | CC(C)(S)[C@@H](C(=O)[O-])n1ccnc1Cc1ccccc1 | 10.3
60 | O=C(O)COc1ccc([N+](=O)[O-])cc1 | 2.89

same assay, conditions: basic group

Row | SMILES | pKa
61 | Cc1c[nH+]c([O-])nc1N | 4.69
62 | CCN(CC)CCNc1cc(C)nc(Nc2ccc(Cl)cc2)n1 | 9.05
63 | OCc1ccc(-c2nccc3c2[nH]c2ccccc23)o1 | 5.7
64 | Cc1cc(N[NH3+])nc2ccccc12 | 2.8
65 | CC1CC(/C=C2\CC(C)(C)CN2)=NC1(C)C (stereo not drawn) | 12.1
66 | CSC(C)=N | 6.71
67 | CCCCCCCCCCCCCCCCCc1c2ccccc2nc2ccccc12 | 5.5
68 | O=C([O-])[C@@H](NCCN[C@@H](C(=O)[O-])c1ccccc1[O-])c1ccccc1[O-] | 11.9
69 | C[C@H]1CC[C@@H]2CCCN21 | 11.7
70 | Oc1cccc2nccnc12 | 0.85
71 | Nc1ccc(S(=O)(=O)Nc2ccncn2)cc1 | 1.3
72 | [S-]c1ncnc2nccnc12 | 6.81
73 | CN1CCC=C(C(=O)[O-])C1 | 9.07
74 | c1ccc(-c2nc3ncncc3[nH]2)cc1 | 2.68
75 | CN[C@H]1CCCC[C@@H]1O | 10.2
76 | C=CCN(C)C | 8.72
77 | NCCC[NH2+]CCCC[NH3+] | 8.35
78 | Cn1ccc(=N)c2ccccc21 | 12.4
79 | CC(C)SC(=N)c1ccccc1 | 8.04
80 | CC1=CSC2=NCCN12 | 9.81
81 | CCN(CC)Cc1c(C)cccc1O | 8.65
82 | CC(C)[NH+](CCC(c1ccccc1)c1ccccn1)C(C)C (stereo not drawn) | 3.2
83 | Nc1nccnn1 | 4

Row | SMILES | pKa
84 | c1ccc2c(c1)NCCN2 | 4.84
85 | O=C1[C@H]2C[C@H](CN3CCCC[C@@H]23)C2=CCCCN12 | 7.7
86 | N[C@@H]1CCC[C@H](O)C1 | 10.1
87 | O=C(O)c1ccc[n+]([O-])c1 | 0.41
88 | CCN(CC)[C@H]1CCC[C@@H]1N(C)C | 9.91
89 | CC(Cc1ccccc1)NCCC#N (stereo not drawn) | 7.23
90 | NC(=O)Cc1ccccn1 | 4.34
91 | NCc1ccccc1S(N)(=O)=O | 8.53
92 | c1ccc(NC2CCCCC2)cc1 | 5.6
93 | C(=C\C[NH+]1CCCCC1)/CN1CCCCC1 | 7.9
94 | CCN(CC)c1nnc(-c2ccccc2)s1 | 3.09
95 | CCN(CC)CC(=O)Nc1cc(C)ccc1C | 7.92
96 | Cn1cnc2ncn(C)c2c1=O | 2.16
97 | CN(C)CCSCC[NH+](C)C | 8
98 | COc1cc2c(cc1OC)[C@]13CCN4CC5=CCO[C@@H]6CC(=O)N2[C@@H]1[C@@H]6[C@@H]5C[C@@H]43 | 5.86
99 | Oc1ccccc1CN1CCCC1 | 8.81
100 | CNCCCCc1ccccc1 | 10.8
101 | Nc1cccc2c1nnn2[C@@H]1C[C@@H](O)[C@H](CO)O1 | 1.9
102 | NCCCc1ccncc1 | 9.98
103 | Nc1ccc2cc3ccccc3nc2c1 | 8.04
104 | CCC(C)[C@H](N)C(=O)[O-] (stereo partly drawn) | 9.62
105 | Cc1cccnc1N | 7.24
106 | Cc1nc(N)nc(N)n1 | 4.59

Row | SMILES | pKa
107 | COc1cc(C(N)=O)ccc1-c1nc2nn(C)cc2[nH]1 | 3.98
108 | COc1ccc(-c2cnc(-c3ccc(N)cc3)o2)cc1 | 3.22
109 | Nc1cccc2cccc(N)c12 | 4.6
110 | NCCCNCCC[NH3+] | 9.72
111 | CC1(C)CC(=O)C=C(N2CCCC2)C1 | 3.15
112 | CCCc1c(C)[n-]n(C2CCN(C)CC2)c1=O | 9.2
113 | COc1cc(N)cc(C(=O)N[C@@H]2C[C@H]3CC[C@@H](C2)N3Cc2ccccc2)c1OC | 9.07
114 | COc1c(CN)cc(C)cc1CN | 8.85
115 | CC[C@H]1CN2CCc3cc(OC)c(OC)cc3[C@@H]2C[C@@H]1CC=O | 8.11
116 | CN(C)CCCN(C)CCC[NH+](C)C | 9
117 | COc1ccc2nccc(N)c2c1 | 8.94
118 | Cc1ccc2c(c1)ncn2[C@H]1O[C@@H](CO)[C@H](O)[C@@H](O)[C@@H]1O | 4.32
119 | CN(C)/C=N/c1cccc(Cl)c1 | 7.97
120 | NC(=O)Nc1ncnc2nc[nH]c12 | 2.35
121 | CCCCSCCN(CC)CC | 8.43
122 | Cc1cnc2c(ccc3cc(C)cnc32)c1 | 5.23
123 | S=C1NC(=S)C(c2ccccc2)N1 (stereo not drawn) | -3.16
124 | CCCN(CCC)Cc1ccccc1O | 8.3
125 | C[n+]1cccnc1[O-] | 2.5
126 | CC(C)(S)[C@@H](C(=O)[O-])n1ccnc1Cc1ccccc1 | 6.98
127 | CC[NH+](CC)CCNc1nc(C)cc(N)n1 | 6.97
128 | C[C@@H]1N[C@@H]1C | 5.34
